What was measured:
[1] = biological target: IDH1 R132H (Homo sapiens, UniProt O75874, R132H); test: IDH1 R132H enzymatic assay (NADPH depletion coupled to diaphorase/resazurin); type: biochemical
[2] = biological target: IDH1 R132C (Homo sapiens, UniProt O75874, R132C); test: IDH1 R132C enzymatic assay (NADPH depletion coupled to diaphorase/resazurin); type: biochemical
Outline: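 NADPH depletion, read via diaphorase/resazurin coupling, after adding substrate at 0.6 mM α-KG and 0.012 mM NADPH. Beforehand, 0.00032 mg/mL enzyme sat with compound 30 min at room temperature in pH 6.5 potassium phosphate buffer with MgCl2, glycerol and BSA.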

[3] = IDH1 R132H enzymatic inhibition, IC50 class
[4] = IDH1 R132C enzymatic inhibition, IC50 class
[5] = enzymatic inhibition, IDH1 R132H
[6] = enzymatic inhibition, IDH1 R132C

Sequence of IDH1 R132C (O75874 whole entry R132C): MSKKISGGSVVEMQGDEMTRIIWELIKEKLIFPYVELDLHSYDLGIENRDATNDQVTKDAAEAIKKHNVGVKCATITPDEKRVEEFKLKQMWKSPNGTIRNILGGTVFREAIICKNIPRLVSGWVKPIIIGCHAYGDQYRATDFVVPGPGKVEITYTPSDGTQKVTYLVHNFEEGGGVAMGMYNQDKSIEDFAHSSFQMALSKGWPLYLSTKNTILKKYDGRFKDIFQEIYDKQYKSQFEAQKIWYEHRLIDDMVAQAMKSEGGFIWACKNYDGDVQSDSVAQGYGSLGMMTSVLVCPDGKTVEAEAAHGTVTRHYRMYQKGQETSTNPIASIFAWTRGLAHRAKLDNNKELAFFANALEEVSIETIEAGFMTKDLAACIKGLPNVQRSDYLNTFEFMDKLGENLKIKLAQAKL
Sequence of IDH1 R132H (O75874 whole entry R132H): as the sequence (O75874 whole entry R132C) above, with C132H counted along it

Row | SMILES | IC50 [1, 3] [µM] | IC50 [2, 4] [µM] | IC50 [1, 5] [µM] | IC50 [2, 6] [µM]
1 | COc1ccc(OC)c(-n2c3c(cc(-c4nc(-c5ccc(Cl)cc5)cs4)c2=O)C(=O)CCC3)c1 [Compound 129] | 1 to 5 | 1 to 5 | – | –
2 | CCc1cccc(CC)c1-n1c(CC(C)C)c(C(=O)N2CCNCC2)cc(-c2nc(-c3ccc(Cl)cc3Cl)c(C)s2)c1=O [Compound 637] | 0.3 to 1 | 0.3 to 1 | – | –
3 | CC1(C)CC(=O)c2cc(-c3nc(-c4ccc(Cl)cc4)cs3)c(=O)n(-c3ccccc3CO)c2C1 [Compound 269] | 5 to 20 | 1 to 5 | – | –
4 | COc1ncc(C)cc1-n1c(C=C(C)C)c(C(=O)N2CCNCC2)cc(-c2ccn(-c3ccc(C(F)(F)F)cc3)n2)c1=O [Compound 541] | – | – | < 0.3 | 1 to 5
5 | CCc1cccc(CC)c1-n1c(CC(C)C)c(C(=O)N2CCNCC2)cc(-c2nc(-c3ccc(Cl)cc3C)c(C)s2)c1=O [Compound 540] | – | – | 1 to 5 | 1 to 5
6 | COc1ccc(OC)c(-n2c3c(cc(-n4cc(-c5ccccc5)cn4)c2=O)C(=O)CC(C)(C)C3)c1 [Compound 120] | > 20 | > 20 | – | –
7 | COc1cccc(-n2c3c(cc(-c4nc(-c5ccc(Cl)cc5)cs4)c2=O)C(=O)CC(C)(C)C3)c1OC [Compound 567] | – | – | 1 to 5 | 1 to 5
8 | Cc1c(N)cccc1-n1c2c(cc(-c3nc(-c4ccc(Cl)cc4)cs3)c1=O)C(=O)CC(C)(C)C2 [Compound 288] | 1 to 5 | 1 to 5 | – | –
9 | CCc1cccc(CC)c1-n1c(C=C(C)C)c(C(=O)N2CCNCC2)cc(-c2nc(-c3ccc(Cl)cn3)cs2)c1=O [Compound 377] | < 0.3 | < 0.3 | – | –
10 | CC(C)=Cc1c(C(=O)N2CCNCC2)cc(-c2nc(-c3ccc(Cl)cc3)cs2)c(=O)n1-c1ccccc1C(C)(C)C [Compound 372] | < 0.3 | < 0.3 | – | –
11 | CCc1cccc(CC)c1-n1c(C)c(C(=O)N2CCNCC2)c(O)c(C(=O)Nc2nc(-c3ccc(Cl)cc3)cs2)c1=O [Compound 400] | > 20 | > 20 | – | –
12 | CCc1cccc(CC)c1-n1c(C)c(C(=O)N2CCCC(N)C2)cc(-c2nc(-c3ccc(Cl)cc3)cs2)c1=O (stereo not drawn) [Compound 223] | 1 to 5 | < 0.3 | – | –
13 | CCc1cccc(CC)c1-n1c(C=C(C)C)c(C(=O)N2CCNC[C@H]2C)cc(-c2nc(-c3ccc(C(F)(F)F)cc3)cs2)c1=O [Compound 533] | – | – | < 0.3 | < 0.3
14 | CCc1cccc(CC)c1-n1c(C)c(C(=O)N2CC(N)C2)cc(-c2nc(-c3ccc(Cl)cc3)cs2)c1=O [Compound 139] | 1 to 5 | 1 to 5 | – | –
15 | COc1ccc([N+](=O)[O-])cc1-n1c2c(cc(-c3nc(-c4ccc(Cl)cc4)cs3)c1=O)C(=O)CC(C)(C)C2 [Compound 128] | 1 to 5 | 1 to 5 | – | –
16 | CCc1cccc(CC)c1-n1c(C(C)C)c(C(=O)N2CCN[C@H](C(=O)OC)C2)cc(-c2nc(-c3ccc(Cl)cc3)cs2)c1=O [Compound 247] | 5 to 20 | 1 to 5 | – | –
17 | Cc1ccc(-n2c3c(cc(-c4nc(-c5ccc(Cl)cc5)cs4)c2=O)C(=O)CCC3)c(C)c1 [Compound 450] | – | – | > 20 | > 20
18 | CCc1cccc(CC)c1-n1c2c(cc(-c3nc(-c4ccc(C(F)(F)F)cc4)cs3)c1=O)C(=O)CC(C)(C)C2 [Compound 186] | 0.3 to 1 | < 0.3 | – | –
19 | CCc1cccc(CC)c1-n1c(CC(C)C)c(C(=O)N2CCNC(C(N)=O)C2)cc(-c2nc(-c3ccc(Cl)cc3)cs2)c1=O (stereo not drawn) [Compound 48] | 0.3 to 1 | < 0.3 | – | –
20 | CCc1cccc(CC)c1-n1c(CC(C)C)c(C(=O)NCC(O)C(F)(F)F)cc(-c2nc(-c3ccc(Cl)cc3)cs2)c1=O (stereo not drawn) [Compound 127] | 0.3 to 1 | < 0.3 | – | –
21 | CCc1cccc(CC)c1-n1c(CC(C)C)c(C(=O)N2CCNCC2)cc(-c2nc(-c3ccc(C(=O)N(C)C)cc3)c(C)s2)c1=O [Compound 419] | – | – | 1 to 5 | 1 to 5
22 | CCOc1ncc(C)cc1-n1c(C=C(C)C)c(C(=O)N2CCNCC2)cc(-c2nc(-c3ccc(C(F)F)cc3)cs2)c1=O [Compound 562] | – | – | < 0.3 | < 0.3
23 | CCc1cccc(CC)c1-n1c(CC(C)C)c(C(=O)N2CCNC(C)C2C)cc(-c2nc(-c3ccc(Cl)cc3)cs2)c1=O (stereo not drawn) [Compound 107] | 0.3 to 1 | < 0.3 | – | –
24 | CCOc1ccccc1-n1c2c(cc(-c3nc(-c4ccc(Cl)cc4)cs3)c1=O)C(=O)CC(C)(C)C2 [Compound 212] | 0.3 to 1 | 0.3 to 1 | – | –
25 | CC(=O)c1ccccc1-n1c2c(cc(-c3nc(-c4ccc(Cl)cc4)cs3)c1=O)C(=O)CC(C)(C)C2 [Compound 286] | 1 to 5 | 1 to 5 | – | –
26 | COc1cccc(Cl)c1-n1c(C=C(C)C)c(C(=O)N2CCNCC2)cc(-c2nc(-c3ccc(Cl)cc3)cs2)c1=O [Compound 397] | < 0.3 | < 0.3 | – | –
27 | CCOc1ncc(Cl)cc1-n1c(C=C(C)C)c(C(=O)N2CCNCC2)cc(-c2nc(-c3ccc(C(F)(F)F)nc3)cs2)c1=O [Compound 513] | – | – | < 0.3 | 0.3 to 1
28 | CCOc1cccc(CC)c1-n1c(C=C(C)C)c(C(=O)N2CCNCC2)cc(-c2nc(-c3ccc(Cl)cc3)cs2)c1=O [Compound 578] | – | – | < 0.3 | < 0.3

Second part, the molecule after the results:

Row | IC50 [1, 3] [µM] | IC50 [2, 4] [µM] | IC50 [1, 5] [µM] | IC50 [2, 6] [µM] | SMILES
29 | – | – | < 0.3 | < 0.3 | CCc1cccc(CC)c1-n1c(C=C(C)C)c(C(=O)N2CCNCC2)cc(-c2ccn(-c3ccc(C(F)(F)F)cc3)n2)c1=O [Compound 511]
30 | 5 to 20 | 5 to 20 | – | – | Cc1cc(CO)ccc1-n1c2c(cc(-c3nc(-c4ccc(Cl)cc4)cs3)c1=O)C(=O)CCC2 [Compound 342]
31 | – | – | 0.3 to 1 | < 0.3 | CCc1cccc(CC)c1-n1c(C=C(C)C)c(C(=O)N2CCNC(=O)C2c2ccccc2)cc(-c2nc(-c3ccc(Cl)cc3)cs2)c1=O (stereo not drawn) [Compound 499]
32 | – | – | < 0.3 | < 0.3 | COCc1ncc(Cl)cc1-n1c(C=C(C)C)c(C(=O)N2CCNCC2)cc(-c2nc(-c3ccc(C(F)(F)F)cc3)cs2)c1=O [Compound 586]
33 | > 20 | 5 to 20 | – | – | COc1ccc(OC)c(-n2c3c(cc(-c4cn(-c5ccc(Cl)cc5)cn4)c2=O)C(=O)CC(C)(C)C3)c1 [Compound 65]
34 | – | – | < 0.3 | < 0.3 | CCCc1c(C(=O)N2CCNCC2)cc(-c2nc(-c3ccc(Cl)cc3)cs2)c(=O)n1-c1c(CC)cccc1CC [Compound 473]
35 | – | – | < 0.3 | < 0.3 | CCc1cccc(CC)c1-n1c(C=C(C)C)c(C(=O)N2CCNC(C(C)C)C2)cc(-c2nc(-c3ccc(Cl)cc3)cs2)c1=O (stereo not drawn) [Compound 489]
36 | – | – | 5 to 20 | 5 to 20 | CC(C)=Cc1c(C(=O)N2CCNCC2)cc(-c2nc(-c3ccc(Cl)cc3)cs2)c(=O)n1-c1ccc[nH]c1=O [Compound 616]
37 | 1 to 5 | 1 to 5 | – | – | COc1cccc(C(=O)O)c1-n1c2c(cc(-c3nc(-c4ccc(Cl)cc4)cs3)c1=O)C(=O)CC(C)(C)C2 [Compound 46]
38 | 0.3 to 1 | < 0.3 | – | – | CCc1cccc(CC)c1-n1c(CC(C)C)c(C(=O)N2C[C@@H](C)N[C@@H](C)C2)cc(-c2nc(-c3ccc(Cl)cc3)cs2)c1=O [Compound 112]
39 | > 20 | > 20 | – | – | CCc1cccc(CC)c1-n1c(CC(C)C)c(C(=O)N2CCNCC2)cc(-c2nc(-c3ccc(N4CCNCC4)cc3)c(C)s2)c1=O [Compound 137]
40 | 1 to 5 | 1 to 5 | – | – | CC1(C)CC(=O)c2cc(-c3nc(-c4ccncc4)cs3)c(=O)n(-c3ccccc3C(F)(F)F)c2C1 [Compound 255]
41 | – | – | 0.3 to 1 | 1 to 5 | CCOc1ncc(F)cc1-n1c(C=C(C)C)c(C(=O)N2CCNCC2)cc(-c2nc(-c3ccc(C(F)F)cn3)cs2)c1=O [Compound 474]
42 | 1 to 5 | 1 to 5 | – | – | CC1(C)CC(=O)c2cc(-c3nc(-c4ccc(Cl)cc4)cs3)c(=O)n(-c3ccccc3N)c2C1 [Compound 301]
43 | – | – | < 0.3 | < 0.3 | CCc1cccc(CC)c1-n1c(C=C(C)C)c(C(=O)N2CCNC(C(=O)O)C2)cc(-c2nc(-c3ccc(Cl)cc3)cs2)c1=O (stereo not drawn) [Compound 591]
44 | 1 to 5 | 1 to 5 | – | – | COc1ccc(F)cc1-n1c2c(cc(-c3nc(-c4ccc(Cl)cc4)cs3)c1=O)C(=O)CCC2 [Compound 318]
45 | 1 to 5 | 1 to 5 | – | – | CCc1cccc(CC)c1-n1c(C)c(C(=O)N(C)CCO)cc(-c2nc(-c3ccc(Cl)cc3)cs2)c1=O [Compound 308]
46 | 1 to 5 | < 0.3 | – | – | CCc1cccc(CC)c1-n1c(C(C)C)c(C(=O)N2CCN[C@@H](C(=O)OC)C2)cc(-c2nc(-c3ccc(Cl)cc3)cs2)c1=O [Compound 222]
47 | 1 to 5 | 1 to 5 | – | – | CCc1cccc(CC)c1-n1c(C)c(C(=O)N2CCCC(O)C2)cc(-c2nc(-c3ccc(Cl)cc3)cs2)c1=O (stereo not drawn) [Compound 250]
48 | – | – | 0.3 to 1 | 0.3 to 1 | CCc1cccc(CC)c1-n1c(CC(C)C)c(C(=O)N2CCNCC2)cc(-c2ccnc(-c3ccc(Cl)cc3)n2)c1=O [Compound 417]
49 | – | – | 0.3 to 1 | < 0.3 | CCc1cccc(CC)c1-n1c(C2CCC2)c(C(=O)N2CCNCC2)cc(-c2nc(-c3ccc(Cl)cc3)cs2)c1=O [Compound 434]
50 | 0.3 to 1 | 0.3 to 1 | – | – | CCc1cccc(CC)c1-n1c(C(C)(C)F)c(C(=O)N2CCNCC2)cc(-c2nc(-c3ccc(Cl)cc3)cs2)c1=O [Compound 664]
51 | 0.3 to 1 | 0.3 to 1 | – | – | CCc1cccc(CC)c1-n1c(C)c(C(=O)N2CCN[C@H](C(=O)O)C2)cc(-c2nc(-c3ccc(Cl)cc3)cs2)c1=O [Compound 60]
52 | 5 to 20 | 5 to 20 | – | – | CCc1cccc(CC)c1-n1c(C)c(C(=O)O)cc(-c2nc(-c3ccc(Cl)cc3)cs2)c1=O [Compound 143]
53 | 0.3 to 1 | 0.3 to 1 | – | – | Cc1ccc(-c2csc(-c3cc4c(n(-c5ccccc5C(F)(F)F)c3=O)CC(C)(C)CC4=O)n2)cc1 [Compound 71]
54 | < 0.3 | 0.3 to 1 | – | – | CCc1cccc(CC)c1-n1c(C)c(C(=O)N2CCNC(CO)C2)cc(-c2nc(-c3ccc(Cl)cc3)cs2)c1=O (stereo not drawn) [Compound 106]
